Assay results from ChEMBL document CHEMBL1909046, “DrugMatrix in vitro pharmacology data”.

How the values were obtained:
[1] = DRUGMATRIX: GABAA, Muscimol, Central radioligand binding (ligand: [3H] Muscimol); format: cell membranes, Rattus norvegicus, Wistar, Brain, Membrane; conditions: Not Active = under 50% inhibition at 10 µM
[2] = target: Insulin receptor (Rattus norvegicus, UniProt P15127); format: cell membranes, Wistar, Liver, Membrane; also: in other assays of this panel Not Active means under 50% inhibition at 10 µM
[3] = target: T1, Neuropeptide Y receptor type 1 (Homo sapiens, UniProt P25929); format: cell membranes, Membrane; conditions: sk-n-mc; also: in other assays of this panel Not Active means under 50% inhibition at 10 µM
T1 sequence (P25929 whole entry): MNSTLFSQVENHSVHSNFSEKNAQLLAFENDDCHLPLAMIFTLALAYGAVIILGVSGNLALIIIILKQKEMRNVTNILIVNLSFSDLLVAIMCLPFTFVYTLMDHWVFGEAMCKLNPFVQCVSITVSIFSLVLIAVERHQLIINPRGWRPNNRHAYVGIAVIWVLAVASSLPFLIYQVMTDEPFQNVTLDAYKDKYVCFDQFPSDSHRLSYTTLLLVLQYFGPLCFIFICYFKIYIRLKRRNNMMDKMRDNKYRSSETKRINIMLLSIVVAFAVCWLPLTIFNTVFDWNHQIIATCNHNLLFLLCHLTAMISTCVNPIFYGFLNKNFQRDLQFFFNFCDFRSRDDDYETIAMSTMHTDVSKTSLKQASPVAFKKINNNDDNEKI

[4] = target: T2, Angiotensin-converting enzyme (Oryctolagus cuniculus, UniProt P12822); format: tissue-based, Lung;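 also: enzymatic inhibition of angiotensin-converting enzyme measured with FAPGG as the substrate; in other assays of this panel Not Active means under 50% inhibition at 10 µM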
T2 sequence (P12822 whole entry): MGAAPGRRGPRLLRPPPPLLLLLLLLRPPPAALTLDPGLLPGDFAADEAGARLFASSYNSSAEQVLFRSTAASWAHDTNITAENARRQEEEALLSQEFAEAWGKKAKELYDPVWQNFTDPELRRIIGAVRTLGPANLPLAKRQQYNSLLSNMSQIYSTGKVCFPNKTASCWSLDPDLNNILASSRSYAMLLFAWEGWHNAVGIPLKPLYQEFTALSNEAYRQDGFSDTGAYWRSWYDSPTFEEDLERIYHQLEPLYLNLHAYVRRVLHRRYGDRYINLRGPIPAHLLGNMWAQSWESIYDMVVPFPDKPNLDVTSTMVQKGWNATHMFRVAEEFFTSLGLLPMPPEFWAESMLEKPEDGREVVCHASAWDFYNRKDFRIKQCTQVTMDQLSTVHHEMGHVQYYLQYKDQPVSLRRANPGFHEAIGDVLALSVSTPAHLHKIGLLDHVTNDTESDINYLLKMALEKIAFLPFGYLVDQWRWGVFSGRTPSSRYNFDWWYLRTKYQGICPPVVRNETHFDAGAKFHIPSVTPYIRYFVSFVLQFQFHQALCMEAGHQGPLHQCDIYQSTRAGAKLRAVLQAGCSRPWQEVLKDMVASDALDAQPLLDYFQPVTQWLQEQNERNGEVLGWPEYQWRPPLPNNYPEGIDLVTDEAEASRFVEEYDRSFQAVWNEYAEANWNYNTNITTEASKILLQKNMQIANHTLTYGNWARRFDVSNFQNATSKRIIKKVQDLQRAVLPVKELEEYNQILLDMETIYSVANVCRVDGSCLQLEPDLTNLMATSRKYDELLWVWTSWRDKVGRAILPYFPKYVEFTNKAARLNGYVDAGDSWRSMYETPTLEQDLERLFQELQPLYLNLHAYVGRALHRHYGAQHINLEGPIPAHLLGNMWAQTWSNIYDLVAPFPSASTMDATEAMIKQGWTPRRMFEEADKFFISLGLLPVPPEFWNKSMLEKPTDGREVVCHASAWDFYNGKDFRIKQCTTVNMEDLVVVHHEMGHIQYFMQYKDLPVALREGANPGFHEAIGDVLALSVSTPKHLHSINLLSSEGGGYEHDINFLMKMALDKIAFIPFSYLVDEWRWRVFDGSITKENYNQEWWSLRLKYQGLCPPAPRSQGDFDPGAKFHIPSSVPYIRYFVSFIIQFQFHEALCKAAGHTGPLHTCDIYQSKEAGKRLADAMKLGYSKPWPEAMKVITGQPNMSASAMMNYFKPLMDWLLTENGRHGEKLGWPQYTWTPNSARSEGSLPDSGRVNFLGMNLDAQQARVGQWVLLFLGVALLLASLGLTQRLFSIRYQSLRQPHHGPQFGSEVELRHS

[5] = target: Mitogen-activated protein kinase 3 (Homo sapiens, UniProt P27361); test: DRUGMATRIX: Protein Serine/Threonine Kinase, ERK1 enzyme inhibition (substrate: Myelin Basic Protein); set-up: species or system Escherichia coli; conditions: Not Active = under 50% inhibition at 10 µM
[6] = target: T3, 5-hydroxytryptamine receptor 1A (Rattus norvegicus, UniProt P19327); format: cell membranes, CHO-K1, Membrane; conditions: cho-k1; also: in other assays of this panel Not Active means under 50% inhibition at 10 µM
T3 sequence (P19327 whole entry): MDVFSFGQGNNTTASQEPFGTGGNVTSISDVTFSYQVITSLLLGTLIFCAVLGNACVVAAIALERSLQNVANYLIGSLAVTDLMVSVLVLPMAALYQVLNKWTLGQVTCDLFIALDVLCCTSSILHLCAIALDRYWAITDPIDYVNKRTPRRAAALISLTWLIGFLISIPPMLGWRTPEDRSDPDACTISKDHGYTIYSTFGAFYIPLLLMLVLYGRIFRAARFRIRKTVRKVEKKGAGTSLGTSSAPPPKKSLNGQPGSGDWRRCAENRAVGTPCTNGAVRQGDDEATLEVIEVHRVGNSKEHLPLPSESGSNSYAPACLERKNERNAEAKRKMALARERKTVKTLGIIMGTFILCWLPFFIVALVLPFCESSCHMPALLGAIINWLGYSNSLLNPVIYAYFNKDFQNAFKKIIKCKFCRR

[7] = target: 5-hydroxytryptamine receptor 1B (Rattus norvegicus, UniProt P28564); format: cell membranes, Wistar, Cerebral cortex, Membrane; also: in other assays of this panel Not Active means under 50% inhibition at 10 µM
[8] = target: T4, Cytochrome P450 2A6 (Homo sapiens, UniProt P11509); conditions: bti-tn-5b1-4; also: in other assays of this panel Not Active means under 50% inhibition at 10 µM
T4 sequence (P11509 whole entry): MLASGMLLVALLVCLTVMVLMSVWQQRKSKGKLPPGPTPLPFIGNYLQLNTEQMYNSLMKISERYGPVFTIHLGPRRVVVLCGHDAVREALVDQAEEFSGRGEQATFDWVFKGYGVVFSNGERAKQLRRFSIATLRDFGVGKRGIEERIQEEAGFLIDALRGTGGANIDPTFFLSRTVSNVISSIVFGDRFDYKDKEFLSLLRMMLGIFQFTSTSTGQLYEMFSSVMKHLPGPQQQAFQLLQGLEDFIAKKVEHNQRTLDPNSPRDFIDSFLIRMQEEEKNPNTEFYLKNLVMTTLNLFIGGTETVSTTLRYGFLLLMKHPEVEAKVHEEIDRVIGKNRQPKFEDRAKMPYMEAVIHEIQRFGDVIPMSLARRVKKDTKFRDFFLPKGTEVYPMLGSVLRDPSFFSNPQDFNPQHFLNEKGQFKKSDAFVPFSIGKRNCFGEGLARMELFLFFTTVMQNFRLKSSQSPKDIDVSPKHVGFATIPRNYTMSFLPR

Chain of Mitogen-activated protein kinase 3 (P27361 whole entry): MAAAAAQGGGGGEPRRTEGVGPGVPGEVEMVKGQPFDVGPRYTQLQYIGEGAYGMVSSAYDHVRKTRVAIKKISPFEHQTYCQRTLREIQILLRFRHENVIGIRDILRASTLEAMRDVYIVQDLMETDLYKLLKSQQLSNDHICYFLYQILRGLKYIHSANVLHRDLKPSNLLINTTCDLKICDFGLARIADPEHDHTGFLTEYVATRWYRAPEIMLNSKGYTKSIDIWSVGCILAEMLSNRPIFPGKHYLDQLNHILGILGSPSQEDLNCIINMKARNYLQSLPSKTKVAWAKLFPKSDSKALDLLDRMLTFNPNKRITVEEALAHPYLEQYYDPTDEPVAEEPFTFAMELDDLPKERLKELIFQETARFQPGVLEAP
Chain of Insulin receptor (P15127 27-759 limits assumed): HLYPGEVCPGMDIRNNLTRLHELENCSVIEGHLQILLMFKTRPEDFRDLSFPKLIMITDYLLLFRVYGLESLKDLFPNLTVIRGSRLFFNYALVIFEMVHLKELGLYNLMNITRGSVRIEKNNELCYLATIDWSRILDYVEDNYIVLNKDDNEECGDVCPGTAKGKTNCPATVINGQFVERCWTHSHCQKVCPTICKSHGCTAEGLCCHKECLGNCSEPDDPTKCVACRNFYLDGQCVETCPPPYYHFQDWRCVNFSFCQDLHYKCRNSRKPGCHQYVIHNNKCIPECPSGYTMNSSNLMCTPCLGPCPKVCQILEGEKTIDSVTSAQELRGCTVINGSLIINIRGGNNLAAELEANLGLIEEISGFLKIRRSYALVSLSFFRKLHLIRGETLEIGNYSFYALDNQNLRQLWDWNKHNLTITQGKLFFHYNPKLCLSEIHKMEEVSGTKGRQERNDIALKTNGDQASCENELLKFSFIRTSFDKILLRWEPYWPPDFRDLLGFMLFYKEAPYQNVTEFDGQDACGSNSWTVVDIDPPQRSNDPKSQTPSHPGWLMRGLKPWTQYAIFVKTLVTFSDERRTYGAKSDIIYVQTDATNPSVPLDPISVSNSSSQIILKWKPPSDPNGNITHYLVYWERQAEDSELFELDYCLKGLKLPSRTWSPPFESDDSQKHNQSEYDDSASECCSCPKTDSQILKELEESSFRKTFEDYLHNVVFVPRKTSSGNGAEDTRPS
Chain of Insulin receptor (P15127 764-1383 limits assumed): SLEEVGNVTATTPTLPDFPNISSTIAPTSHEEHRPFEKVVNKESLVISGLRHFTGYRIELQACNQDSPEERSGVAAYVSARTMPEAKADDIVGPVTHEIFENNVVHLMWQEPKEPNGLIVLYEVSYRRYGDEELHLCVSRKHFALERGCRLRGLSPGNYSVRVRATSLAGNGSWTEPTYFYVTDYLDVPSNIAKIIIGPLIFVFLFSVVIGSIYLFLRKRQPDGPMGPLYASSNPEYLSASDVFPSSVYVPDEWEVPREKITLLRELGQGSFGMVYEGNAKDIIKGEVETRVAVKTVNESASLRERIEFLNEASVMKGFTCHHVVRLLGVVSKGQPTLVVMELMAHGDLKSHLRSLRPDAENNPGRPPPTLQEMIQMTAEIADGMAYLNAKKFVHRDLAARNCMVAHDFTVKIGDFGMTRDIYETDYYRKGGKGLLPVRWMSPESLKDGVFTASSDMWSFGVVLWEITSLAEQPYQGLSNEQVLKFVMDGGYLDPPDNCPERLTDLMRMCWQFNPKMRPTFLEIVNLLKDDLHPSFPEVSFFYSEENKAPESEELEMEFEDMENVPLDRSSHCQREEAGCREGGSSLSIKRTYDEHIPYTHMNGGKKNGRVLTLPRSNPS
Chain of 5-hydroxytryptamine receptor 1B (P28564 whole entry): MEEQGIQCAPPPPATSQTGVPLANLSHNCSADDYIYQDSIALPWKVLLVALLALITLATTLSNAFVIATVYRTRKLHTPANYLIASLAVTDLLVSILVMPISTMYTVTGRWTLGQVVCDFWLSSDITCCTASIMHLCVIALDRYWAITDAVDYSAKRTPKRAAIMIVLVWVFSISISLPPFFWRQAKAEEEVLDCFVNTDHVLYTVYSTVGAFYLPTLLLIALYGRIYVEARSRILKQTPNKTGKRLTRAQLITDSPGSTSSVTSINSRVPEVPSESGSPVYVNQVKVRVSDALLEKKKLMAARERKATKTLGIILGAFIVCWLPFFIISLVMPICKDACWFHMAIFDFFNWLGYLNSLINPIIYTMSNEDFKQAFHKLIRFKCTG

Row | Structure (SMILES) | IC50 [1] | Ki [1] | IC50 [2] | IC50 [3] | IC50 [4] | IC50 [5] | IC50 [6] | IC50 [7] | IC50 [8] | Ki [8] | IC50 ([7]; read-out: IC50) [µM] | Ki ([7]; read-out: Ki) [µM]
1 | CC(C)CN(C[C@@H](O)[C@H](Cc1ccccc1)NC(=O)O[C@H]1CCOC1)S(=O)(=O)c1ccc(N)cc1 | Not Active | Not Active | Not Active | Not Active | Not Active | Not Active | Not Active | Not Active | Not Active | Not Active | – | –
2 | c1ccc(Nc2ccc(Nc3ccccc3)cc2)cc1 | Not Active | Not Active | Not Active | Not Active | Not Active | Not Active | Not Active | Not Active | Not Active | Not Active | – | –
3 | COc1cc2c3cc1Oc1cc(ccc1O)C[C@@H]1c4c(cc(OC)c(O)c4Oc4ccc(cc4)C[C@@H]3N(C)CC2)CC[N+]1(C)C.[Cl-] | Not Active | Not Active | Not Active | Not Active | Not Active | Not Active | Not Active | Not Active | Not Active | Not Active | – | –
4 | NC(=O)N1c2ccccc2CCc2ccccc21 | Not Active | Not Active | Not Active | Not Active | Not Active | Not Active | Not Active | Not Active | Not Active | Not Active | – | –
5 | O=C1CC[C@@H](N2C(=O)c3ccccc3C2=O)C(=O)N1 | Not Active | Not Active | Not Active | Not Active | Not Active | Not Active | Not Active | Not Active | Not Active | Not Active | – | –
6 | Cc1onc(O)c1CC(N)C(=O)O (racemic) [(R,S)-AMPA] | Not Active | Not Active | Not Active | Not Active | Not Active | Not Active | Not Active | Not Active | Not Active | Not Active | – | –
7 | Cc1ccc2cc3c(ccc4ccccc43)c3c2c1CC3 [3-METHYLCHOLANTHRENE] | Not Active | Not Active | Not Active | Not Active | Not Active | Not Active | Not Active | Not Active | Not Active | Not Active | – | –
8 | CC[C@@]1(O)C[C@H](O[C@H]2C[C@H](N(C)C)[C@H](O[C@H]3C[C@H](O)[C@H](O[C@H]4CCC(=O)[C@H](C)O4)[C@H](C)O3)[C@H](C)O2)c2c(cc3c(c2O)C(=O)c2c(O)cccc2C3=O)[C@H]1C(=O)OC [ACLARUBICIN] | Not Active | Not Active | Not Active | Not Active | Not Active | Not Active | Not Active | Not Active | Not Active | Not Active | – | –
9 | Nc1nc2c(ncn2COCCO)c(=O)[nH]1 [ACYCLOVIR] | Not Active | Not Active | Not Active | Not Active | Not Active | Not Active | Not Active | Not Active | Not Active | Not Active | – | –
10 | Cc1c(C)c2c(c(C)c1O)CC[C@@](C)(CCC[C@H](C)CCC[C@H](C)CCCC(C)C)O2 [ALPHA-TOCOPHEROL] | Not Active | Not Active | Not Active | Not Active | Not Active | Not Active | Not Active | Not Active | Not Active | Not Active | – | –
11 | CN(C)c1nc(N(C)C)nc(N(C)C)n1 [ALTRETAMINE] | Not Active | Not Active | Not Active | Not Active | Not Active | Not Active | Not Active | Not Active | – | – | – | –
12 | Nc1c(Br)cc(Br)cc1CN[C@H]1CC[C@H](O)CC1 [AMBROXOL] | Not Active | Not Active | Not Active | Not Active | Not Active | Not Active | Not Active | Not Active | – | – | – | –
13 | C[C@H](CS)C(=O)N1CCC[C@H]1C(=O)O [CAPTOPRIL] | Not Active | Not Active | Not Active | Not Active | – | Not Active | Not Active | Not Active | Not Active | Not Active | – | –
14 | C[C@]12CC[C@@H]3c4ccc(O)cc4CC[C@H]3[C@@H]1CCC2=O [ESTRONE] | Not Active | Not Active | Not Active | Not Active | Not Active | Not Active | Not Active | Not Active | – | – | – | –
15 | N=C(N)NCCN1CCCCCCC1 [GUANETHIDINE] | Not Active | Not Active | Not Active | Not Active | Not Active | Not Active | Not Active | Not Active | – | – | – | –
16 | CC1(C)S[C@@H]2[C@H](NC(=O)Cc3ccccc3)C(=O)N2[C@H]1C(=O)O [PENICILLIN G] | Not Active | Not Active | Not Active | Not Active | Not Active | Not Active | Not Active | Not Active | – | – | – | –
17 | CCCN1C[C@H](CSC)C[C@@H]2c3cccc4[nH]cc(c34)C[C@H]21 [PERGOLIDE] | Not Active | Not Active | Not Active | Not Active | Not Active | Not Active | – | – | Not Active | Not Active | 0.087 | 0.04
